How the values were obtained:
Assay in all cases: relative viability (nuclei count vs DMSO), 5 days (fraction); higher = more cells survive
BI-2536 + Foretinib = compound: CC[C@@H]1C(=O)N(C)c2cnc(Nc3ccc(C(=O)NC4CCN(C)CC4)cc3OC)nc2N1C1CCCC1 [BI-2536] + COc1cc2c(Oc3ccc(NC(=O)C4(C(=O)Nc5ccc(F)cc5)CC4)cc3F)ccnc2cc1OCCCN1CCOCC1 [Foretinib] (partner 0.25 µM)
Outline: (§1)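 Each reported value is a median over duplicate plates. It expresses relative viability: treated-well nuclei count divided by vehicle-well nuclei count. Lung cancer cell lines in 1536-well plates were dosed by pin tool a day after seeding, alone with one drug or with a fixed anchor-drug dose plus five library-drug doses (not always all listed) in √10 steps, and nuclei were counted after 5 days.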

NPK76-II-72-1 + AZD7762 = compound: CC1CC(=O)N(C2=CN=C(N=C2N1C3CCCC3)NC4=C(C=C(C=C4)C(=O)NC5CCN(CC5)C)OC)C [NPK76-II-72-1] + NC(=O)Nc1cc(-c2cccc(F)c2)sc1C(=O)N[C@H]1CCCNC1 [AZD7762] (partner 0.2 µM)
Outline: as §1

BI-2536 + Crizotinib = compound: CC[C@@H]1C(=O)N(C)c2cnc(Nc3ccc(C(=O)NC4CCN(C)CC4)cc3OC)nc2N1C1CCCC1 [BI-2536] + C[C@@H](Oc1cc(-c2cnn(C3CCNCC3)c2)cnc1N)c1c(Cl)ccc(F)c1Cl [Crizotinib] (partner 1 µM)
Outline: as §1

NPK76-II-72-1 + Olaparib = compound: CC1CC(=O)N(C2=CN=C(N=C2N1C3CCCC3)NC4=C(C=C(C=C4)C(=O)NC5CCN(CC5)C)OC)C [NPK76-II-72-1] + O=C(c1cc(Cc2n[nH]c(=O)c3ccccc23)ccc1F)N1CCN(C(=O)C2CC2)CC1 [Olaparib] (partner 8 µM)
Outline: as §1

Row | Cell Line | relative viability (BI-2536 + Foretinib; first compound 0.01 µM) | relative viability (BI-2536 + Foretinib; first compound 0.03162 µM) | relative viability (BI-2536 + Foretinib; first compound 0.1 µM) | relative viability (BI-2536 + Foretinib; first compound 0.3162 µM) | relative viability (BI-2536 + Foretinib; first compound 1 µM) | relative viability (NPK76-II-72-1 + AZD7762; first compound 0.01 µM) | relative viability (NPK76-II-72-1 + AZD7762; first compound 0.03162 µM) | relative viability (NPK76-II-72-1 + AZD7762; first compound 0.1 µM) | relative viability (NPK76-II-72-1 + AZD7762; first compound 0.3162 µM) | relative viability (NPK76-II-72-1 + AZD7762; first compound 1 µM) | relative viability (BI-2536 + Crizotinib; first compound 0.01 µM) | relative viability (BI-2536 + Crizotinib; first compound 0.03162 µM) | relative viability (BI-2536 + Crizotinib; first compound 0.1 µM) | relative viability (BI-2536 + Crizotinib; first compound 0.3162 µM) | relative viability (BI-2536 + Crizotinib; first compound 1 µM) | relative viability (NPK76-II-72-1 + Olaparib; first compound 0.01 µM) | relative viability (NPK76-II-72-1 + Olaparib; first compound 0.03162 µM) | relative viability (NPK76-II-72-1 + Olaparib; first compound 0.1 µM) | relative viability (NPK76-II-72-1 + Olaparib; first compound 0.3162 µM) | relative viability (NPK76-II-72-1 + Olaparib; first compound 1 µM)
1 | 201T | 1.1 | 0.896 | 0.612 | 0.184 | 0.212 | 0.579 | 0.759 | 0.62 | 0.618 | 0.619 | 1.02 | 1.03 | 1 | 0.66 | 0.358 | 0.792 | 0.826 | 0.836 | 0.851 | 0.839
2 | A549 | 0.962 | 0.901 | 0.427 | 0.0288 | 0.0231 |  |  |  |  |  | 0.727 | 0.565 | 0.119 | 0.0589 | 0.0294 | 0.215 | 0.387 | 0.356 | 0.269 | 0.417
3 | A-427 | 1.02 | 0.919 | 1.08 | 0.166 | 0.148 | 0.682 | 0.673 | 0.945 | 0.796 | 0.814 | 0.927 | 0.678 | 0.535 | 0.119 | 0.0896 | 0.644 | 0.772 | 0.74 | 0.653 | 0.869
4 | ABC-1 | 1.18 | 0.868 | 0.711 | 0.249 | 0.187 | 0.73 | 0.726 | 0.719 | 0.536 | 0.72 | 1.27 | 0.601 | 0.353 | 0.205 | 0.214 | 0.606 | 0.537 | 0.764 | 0.803 | 1.34
5 | BEN | 0.564 | 0.818 | 0.361 | 0.243 | 0.248 | 0.77 | 0.516 | 0.791 | 0.572 | 0.786 | 0.849 | 0.6 | 0.556 | 0.243 | 0.216 | 1.01 | 1.14 | 1.04 | 1.03 | 1
6 | CAL-12T | 1.08 | 0.951 | 0.503 | 0.173 | 0.187 | 0.65 | 0.718 | 0.506 | 0.645 | 0.724 | 0.532 | 0.295 | 0.409 | 0.128 | 0.155 | 0.724 | 0.829 | 0.726 | 0.741 | 0.825
7 | COR-L23 | 1.04 | 1.04 | 0.453 | 0.128 | 0.0906 |  |  |  |  |  | 0.684 | 0.566 | 0.226 | 0.11 | 0.0912 | 0.321 | 0.38 | 0.34 | 0.335 | 0.396
8 | COR-L 105 | 1.12 | 0.848 | 0.913 | 0.366 | 0.344 |  |  |  |  |  | 0.798 | 0.611 | 0.394 | 0.288 | 0.264 | 0.586 | 0.795 | 0.46 | 0.683 | 0.794
9 | Calu-6 | 0.8 | 0.613 | 0.281 | 0.0815 | 0.0737 |  |  |  |  |  | 0.713 | 0.4 | 0.273 | 0.113 | 0.102 | 0.561 | 0.625 | 0.65 | 0.62 | 0.559
10 | ChaGo-K-1 | 0.851 | 0.972 | 0.687 | 0.164 | 0.217 | 0.829 | 0.873 | 0.833 | 0.809 | 0.839 | 1.05 | 0.693 | 0.704 | 0.299 | 0.303 | 0.417 | 0.401 | 0.392 | 0.418 | 0.448
11 | EBC-1 | 0.0994 | 0.0943 | 0.0905 | 0.0859 | 0.0908 |  |  |  |  |  | 0.194 | 0.14 | 0.175 | 0.141 | 0.145 | 0.697 | 0.734 | 0.712 | 0.7 | 0.812
12 | EKVX | 0.702 | 0.833 | 0.755 | 0.237 | 1.08 | 0.672 | 0.629 | 0.718 |  | 0.83 | 1.01 | 0.745 | 1.07 | 0.217 | 0.147 | 0.755 | 0.898 | 0.735 |  | 1.02
13 | EMC-BAC-2 | 1.03 | 1.18 | 0.947 | 0.202 | 0.194 | 1.02 | 1.07 | 1.02 | 1.09 | 1.17 | 0.882 | 0.791 | 0.701 | 0.174 | 0.145 | 0.468 | 0.506 | 0.51 | 0.486 | 0.541
14 | HCC-44 |  |  |  |  |  | 1.02 | 1.09 | 0.966 | 0.999 | 1.07 | 0.786 | 0.703 | 0.444 | 0.139 | 0.0857 | 0.955 | 1 | 0.946 | 0.935 | 0.989
15 | IA-LM | 1.24 | 1.14 | 0.518 | 0.0587 | 0.0439 |  |  |  |  |  | 0.771 | 0.667 | 0.125 | 0.108 | 0.058 | 0.811 | 0.825 | 0.766 | 0.788 | 0.847

Reference: the supplement of paper PMC10307832
